# From ChEMBL document CHEMBL1201862, “PubChem BioAssay data set” (2004)
# The source made the active and inactive calls.
# What was measured:
# [1] = HGIII-sPLA2 enzyme inhibition potency – biochemical, QFRET, IC50, dose response (AID 743457);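 note: green fluorescence rise as the enzyme cleaves BODIPY PC-A2 in liposomes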
# BJ [2] = assay: BJ-TERT fibroblast viability loss – cell-based, RAS-independent, luminescence, dose response (AID 1933); assay type: functional; conditions: Homo sapiens
# [3] = molecular target: Luciferin 4-monooxygenase (Photinus pyralis, UniProt P08659); assay: inhibition of purified Photinus pyralis luciferase – biochemical, luminescence, dose response (AID 1891)
# Luciferin 4-monooxygenase, sequence (P08659 whole entry): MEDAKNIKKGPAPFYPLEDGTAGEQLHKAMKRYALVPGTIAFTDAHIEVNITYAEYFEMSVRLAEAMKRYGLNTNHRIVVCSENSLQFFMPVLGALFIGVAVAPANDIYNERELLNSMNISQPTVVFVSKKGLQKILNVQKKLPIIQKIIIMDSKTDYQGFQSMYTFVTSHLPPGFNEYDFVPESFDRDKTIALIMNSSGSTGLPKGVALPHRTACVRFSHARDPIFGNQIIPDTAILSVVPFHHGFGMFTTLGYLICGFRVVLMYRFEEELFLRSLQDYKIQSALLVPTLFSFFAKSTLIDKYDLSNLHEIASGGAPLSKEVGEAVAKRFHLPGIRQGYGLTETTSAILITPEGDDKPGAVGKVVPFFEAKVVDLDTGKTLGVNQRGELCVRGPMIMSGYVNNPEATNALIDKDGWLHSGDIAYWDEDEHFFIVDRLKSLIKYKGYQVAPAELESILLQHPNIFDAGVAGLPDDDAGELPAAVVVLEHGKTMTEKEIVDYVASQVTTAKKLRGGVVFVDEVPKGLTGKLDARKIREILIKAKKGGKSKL
# [4] = Luminescence Cell-Based Dose Confirmation HTS to Identify Inhibitors of Platelet Dense Granule Release. [Related pubchem assays: 1663 (Primary HTS), 1678 (Summary of Project)]; assay type: functional
# BJ [5] = assay: BJ-TERT-LT-ST fibroblast viability loss – cell-based, RAS-independent, luminescence, dose response (AID 1935); assay type: functional; conditions: Homo sapiens;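 note: BJ fibroblasts immortalized with TERT plus LT and ST oncogenes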
# [6] = DRD fibroblast viability loss – cell-based, non-viral oncogenic, luminescence, dose response (AID 1934); assay type: functional; conditions: Homo sapiens
# BJ [7] = assay: growth inhibition of engineered Ras-driven BJ cells – cell-based, alamar blue fluorescence, cherrypicked samples, dose response (AID 2631); assay type: functional; conditions: Homo sapiens;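 note: confirmatory dose-response assay in RAS-dependent BJ fibroblasts engineered with TERT, LT and ST, with cytotoxicity read by fluorescence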
# INS1 = assay: INS-1E survival protection against cytokine death – cell-based, luminescence, retest, dose response (AID 449756); assay type: functional; conditions: Rattus norvegicus;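 note: cell death triggered by IL-1 beta plus TNF-alpha plus IFN-gamma mixture; protective hits raise ATP signal compared with cytokine alone wells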
# [8] = A549 cell cytotoxicity, dose response, cytotoxicity control, plate reader, cherry-pick, antagonist series (AID 743412); assay type: functional, cell-based
# [9] = toxicity toward HepG2 liver cells – cell-based, plate reader, cherry-pick, antagonist series, cytotoxicity control, dose response (AID 743416); assay type: functional
# [10] = blockers of bursicon-stimulated LGR2 cAMP reporter – cell-based, HEK293, CRE-luciferase reporter, cherry pick, set 2, dose response (AID 743343); assay type: functional;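 note: transfected cells were stimulated with diluted bursicon conditioned medium after compound addition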
# [11] = blockade of melanocortin 4 receptor signaling – cell-based, plate reader, cherry pick, counter-screen for LGR2 antagonist project, dose response (AID 743444); assay type: functional;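 note: transfected HEK 293 cells stimulated with alpha-MSH peptide; potency of inhibitors of the alpha-MSH evoked signal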
# [12] = molecular target: T1, Oxysterols receptor LXR-beta (Homo sapiens, UniProt P55055); assay type: functional, cell-based;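 note: agonist activity at LXR measured by a cell-based luminescence readout across a dose range, run as a counterscreen for daf-12 agonists; HEK293 cells with Gal4-LXR fusion and GAL4-driven luciferase reporter; potency for activation of Gal4-LXR reporter so compounds are agonists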
# T1 sequence (P55055 whole entry): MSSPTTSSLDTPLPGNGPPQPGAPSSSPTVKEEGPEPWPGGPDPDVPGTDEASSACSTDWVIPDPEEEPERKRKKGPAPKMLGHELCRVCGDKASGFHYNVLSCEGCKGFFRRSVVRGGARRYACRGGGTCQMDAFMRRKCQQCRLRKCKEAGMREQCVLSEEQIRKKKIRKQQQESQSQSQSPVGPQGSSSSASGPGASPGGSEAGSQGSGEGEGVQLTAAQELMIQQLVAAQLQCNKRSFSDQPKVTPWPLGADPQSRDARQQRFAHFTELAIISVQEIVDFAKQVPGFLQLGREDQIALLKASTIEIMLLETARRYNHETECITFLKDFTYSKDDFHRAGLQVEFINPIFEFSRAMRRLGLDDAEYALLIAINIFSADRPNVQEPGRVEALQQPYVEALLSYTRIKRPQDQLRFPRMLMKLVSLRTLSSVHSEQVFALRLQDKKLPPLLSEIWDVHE
# [13] = viability loss in HEK293 cells – cell-based, plate reader, cherry-picked samples, cytotoxicity control, dose response (AID 743446); assay type: functional
# [14] = microbe, parasite or virus in culture; assay type: functional; conditions: Mycobacterium tuberculosis
# [15] = Luminescence Cell-Based Dose Retest to Confirm Inhibitors of Cancer Stem Cells. [Related pubchem assays (depositor defined):AID2717, AID2721]; assay type: functional; conditions: Homo sapiens
# [16] = blockers of HIV-1 envelope-mediated cell-cell fusion – cherry-pick, dose response (AID 652057); assay type: functional, cell-based
# [17] = viability loss in CEM21 cells – cell-based, CellTiter-Glo luminescence, cherry-picked, cytotoxicity control for viral fusion inhibitor project, dose response (AID 652042); assay type: functional;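 note: potency for signal decrease meaning cytotoxicity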
# [18] = blockers of HIV-1 ZM109 envelope-driven cell-cell fusion – HeLa effector, CEM target cells, luciferase, cherry-pick, dose response (AID 652058); assay type: functional, cell-based;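 note: luciferase signal from HIV-1 Env mediated cell-cell fusion of effector and target cells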
# [19] = HIV-1 AD8 envelope cell-cell fusion blockers – cherry-pick, dose response (AID 652062); assay type: functional, cell-based;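 note: luciferase signal from cell-cell fusion driven by HIV-1 clade B AD8 Env; potency is for inhibitors of fusion seen as a drop in luminescence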
# Paired box protein Pax-8 = Paired box protein Pax-8 (Homo sapiens, UniProt Q06710); assay: PAX8 transcriptional activity inhibition in RMG-I – RMG-I cells, luciferase, cherry-pick, dose response (AID 687027); assay type: functional, cell-based;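 note: luciferase reporter driven by Pax8 target thyroperoxidase promoter measured by SteadyGlo luminescence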
# Paired box protein Pax-8, sequence (Q06710 whole entry): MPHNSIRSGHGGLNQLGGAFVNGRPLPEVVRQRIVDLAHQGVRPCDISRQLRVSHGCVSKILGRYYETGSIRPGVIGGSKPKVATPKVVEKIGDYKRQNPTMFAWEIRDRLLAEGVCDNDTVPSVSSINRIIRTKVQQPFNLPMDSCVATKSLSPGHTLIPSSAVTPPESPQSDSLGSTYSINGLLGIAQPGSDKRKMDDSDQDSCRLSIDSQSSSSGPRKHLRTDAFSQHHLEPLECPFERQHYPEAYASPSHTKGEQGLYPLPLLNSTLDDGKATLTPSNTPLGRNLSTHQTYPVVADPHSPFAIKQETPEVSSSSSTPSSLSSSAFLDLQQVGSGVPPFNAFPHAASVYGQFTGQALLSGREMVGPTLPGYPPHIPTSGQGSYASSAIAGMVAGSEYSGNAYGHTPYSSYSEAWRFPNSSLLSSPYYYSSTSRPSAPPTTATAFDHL
# [20] = IGROV1 cell killing – plate reader, dry powder samples, PAX8 inhibitor project, dose response (AID 743043); assay type: functional, cell-based; conditions: IGROV-1
# [21] = NIH-3T3 fibroblast cytotoxicity, dose response, cytotoxicity control, cell-based, fluorescence, Alamar Blue, secondary assay (AID 2327); assay type: functional;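 note: NIH-3T3 mouse fibroblasts cultured with fluconazole at 8 µg/mL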
# [22] = fluconazole-exposed Candida albicans growth modulators – fluorescence, retest, confirmation (AID 2467); assay type: functional, cell-based
# [23] = molecular target: T2, Serine/threonine-protein phosphatase (Candida dubliniensis (strain CD36 / CBS 7987 / NCPF 3949 / NRRLY-17841) (Yeast), UniProt B9W6M3); assay: blockers of CaCl2-induced CDRE-lacZ signaling – S. cerevisiae, luminescence, secondary, dose response (AID 2388); assay type: functional, cell-based;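 note: yeast reporter cells carrying a calcineurin-responsive lacZ construct stimulated with calcium chloride; luminescent beta-galactosidase reporter signal in whole cells rather than isolated phosphatase activity; potency for inhibition where a drop in reporter signal means calcineurin blockade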
# T2 sequence (B9W6M3 whole entry): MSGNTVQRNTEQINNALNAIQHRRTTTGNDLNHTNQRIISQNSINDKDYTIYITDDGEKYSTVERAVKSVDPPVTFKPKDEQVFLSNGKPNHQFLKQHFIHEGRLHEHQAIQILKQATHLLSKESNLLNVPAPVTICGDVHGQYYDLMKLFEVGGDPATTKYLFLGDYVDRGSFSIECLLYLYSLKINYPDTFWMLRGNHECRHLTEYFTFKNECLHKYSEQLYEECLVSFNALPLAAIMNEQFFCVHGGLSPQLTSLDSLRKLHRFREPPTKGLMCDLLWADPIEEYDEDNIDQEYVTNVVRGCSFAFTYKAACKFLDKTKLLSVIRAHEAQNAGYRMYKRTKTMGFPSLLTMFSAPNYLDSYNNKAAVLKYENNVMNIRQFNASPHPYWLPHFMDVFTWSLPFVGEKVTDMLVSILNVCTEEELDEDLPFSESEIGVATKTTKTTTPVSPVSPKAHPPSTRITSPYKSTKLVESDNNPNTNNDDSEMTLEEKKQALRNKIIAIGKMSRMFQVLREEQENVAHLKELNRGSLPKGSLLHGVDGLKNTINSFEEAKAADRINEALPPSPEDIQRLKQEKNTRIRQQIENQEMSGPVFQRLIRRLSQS
# [24] = molecular target: ATP-dependent molecular chaperone HSP82 (Candida albicans (strain WO-1) (Yeast), UniProt C4YTQ8); assay: steroid-induced GRE reporter decrease in yeast – S. cerevisiae, luminescence, Hsp90 inhibitor project, dose response (AID 2400); assay type: functional, cell-based;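 note: beta-galactosidase luminescence from glucocorticoid response element reporter as proxy for Hsp90 function; inhibitor potency where signal loss means Hsp90 inhibition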
# ATP-dependent molecular chaperone HSP82, sequence (C4YTQ8 whole entry): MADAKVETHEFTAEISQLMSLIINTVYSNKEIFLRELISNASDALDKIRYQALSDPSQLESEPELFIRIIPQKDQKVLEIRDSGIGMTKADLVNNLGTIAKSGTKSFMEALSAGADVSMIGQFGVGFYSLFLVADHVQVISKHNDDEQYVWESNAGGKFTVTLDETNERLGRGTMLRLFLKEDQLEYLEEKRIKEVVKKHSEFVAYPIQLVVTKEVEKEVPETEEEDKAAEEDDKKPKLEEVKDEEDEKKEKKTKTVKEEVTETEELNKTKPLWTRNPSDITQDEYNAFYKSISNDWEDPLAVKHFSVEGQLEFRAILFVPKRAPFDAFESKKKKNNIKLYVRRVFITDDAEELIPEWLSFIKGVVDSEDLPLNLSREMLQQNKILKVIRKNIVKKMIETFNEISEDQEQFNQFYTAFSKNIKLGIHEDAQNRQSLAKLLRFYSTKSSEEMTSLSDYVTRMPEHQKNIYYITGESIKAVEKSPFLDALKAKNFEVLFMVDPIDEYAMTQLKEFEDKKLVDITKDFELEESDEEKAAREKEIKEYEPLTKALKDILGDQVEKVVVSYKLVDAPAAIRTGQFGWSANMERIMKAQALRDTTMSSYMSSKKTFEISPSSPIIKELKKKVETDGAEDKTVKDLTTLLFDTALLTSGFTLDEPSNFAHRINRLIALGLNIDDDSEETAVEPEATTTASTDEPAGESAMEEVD
# [25] = molecular target: SWI/SNF-related matrix-associated actin-dependent regulator of chromatin subfamily A member 2 (Homo sapiens, UniProt P51531); assay: Luminescence-based cell-based high throughput dose response assay to identify activators of the function of SWI/SNF related, matrix associated, actin dependent regulator of chromatin, subfamily a, member 2 (SMARCA2, BRM).; assay type: functional
# SWI/SNF-related matrix-associated actin-dependent regulator of chromatin subfamily A member 2, sequence (P51531 whole entry): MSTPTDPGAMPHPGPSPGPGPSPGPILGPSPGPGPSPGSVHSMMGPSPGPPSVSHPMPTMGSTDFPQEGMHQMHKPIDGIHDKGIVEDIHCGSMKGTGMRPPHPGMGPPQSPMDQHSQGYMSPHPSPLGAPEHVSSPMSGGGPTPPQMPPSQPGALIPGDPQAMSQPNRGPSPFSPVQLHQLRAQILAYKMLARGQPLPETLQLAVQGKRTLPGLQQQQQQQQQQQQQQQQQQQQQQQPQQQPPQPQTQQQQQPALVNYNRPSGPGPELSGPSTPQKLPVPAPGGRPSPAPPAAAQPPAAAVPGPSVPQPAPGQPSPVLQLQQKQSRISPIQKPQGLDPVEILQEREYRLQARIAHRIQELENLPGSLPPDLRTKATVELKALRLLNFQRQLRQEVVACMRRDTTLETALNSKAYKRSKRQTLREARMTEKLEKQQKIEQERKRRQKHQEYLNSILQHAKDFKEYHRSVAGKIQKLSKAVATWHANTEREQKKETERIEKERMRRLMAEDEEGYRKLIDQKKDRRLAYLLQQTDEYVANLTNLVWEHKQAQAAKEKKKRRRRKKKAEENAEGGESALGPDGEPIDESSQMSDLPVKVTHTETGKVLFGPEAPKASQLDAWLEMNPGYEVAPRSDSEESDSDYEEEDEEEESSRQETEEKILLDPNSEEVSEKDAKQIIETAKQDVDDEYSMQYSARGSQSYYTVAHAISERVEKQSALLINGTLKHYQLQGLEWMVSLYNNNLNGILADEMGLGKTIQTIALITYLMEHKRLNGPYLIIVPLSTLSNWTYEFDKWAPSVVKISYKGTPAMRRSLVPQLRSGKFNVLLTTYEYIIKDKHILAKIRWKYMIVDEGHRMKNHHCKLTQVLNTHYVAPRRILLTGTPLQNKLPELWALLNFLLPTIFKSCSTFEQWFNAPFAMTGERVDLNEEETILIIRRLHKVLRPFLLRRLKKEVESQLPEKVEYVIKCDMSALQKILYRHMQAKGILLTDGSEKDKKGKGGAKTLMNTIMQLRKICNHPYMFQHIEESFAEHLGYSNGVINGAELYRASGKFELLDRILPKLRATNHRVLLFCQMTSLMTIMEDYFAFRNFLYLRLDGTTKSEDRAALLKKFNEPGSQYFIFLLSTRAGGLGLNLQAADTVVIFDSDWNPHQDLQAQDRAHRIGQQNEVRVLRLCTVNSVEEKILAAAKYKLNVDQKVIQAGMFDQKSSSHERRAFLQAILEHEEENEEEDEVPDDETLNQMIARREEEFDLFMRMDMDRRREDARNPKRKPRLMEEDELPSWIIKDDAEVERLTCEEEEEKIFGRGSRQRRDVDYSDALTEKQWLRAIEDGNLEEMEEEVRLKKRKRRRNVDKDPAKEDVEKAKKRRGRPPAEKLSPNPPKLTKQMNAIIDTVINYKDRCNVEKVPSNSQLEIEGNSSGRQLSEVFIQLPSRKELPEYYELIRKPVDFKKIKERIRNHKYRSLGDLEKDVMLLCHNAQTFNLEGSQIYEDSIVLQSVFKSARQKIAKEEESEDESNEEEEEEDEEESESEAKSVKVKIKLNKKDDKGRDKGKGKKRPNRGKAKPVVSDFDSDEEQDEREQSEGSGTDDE
# [26] = Counterscreen for activators of the function of SWI/SNF related, matrix associated, actin dependent regulator of chromatin, subfamily a, member 2 (SMARCA2, BRM): Luminescence-based cell-based high throughput dose response assay to identify non-selective compounds using the VP16 reporter assay.; assay type: functional
# [27] = P. falciparum Dd2 growth inhibitors, dose response, SYBR Green, cherry-picked samples (AID 1159567); assay type: functional, cell-based
# [28] = toxicity to human hepatoma HepG2 cells – cell-based, cherry-picked samples, cytotoxicity control, dose response (AID 1159577); assay type: functional
# [29] = molecular target: T3, Polyadenylate-binding protein 1 (Homo sapiens, UniProt P11940); assay: MLLE binding blockers, Cy5 peptide tracer – biochemical, fluorescence polarization, Cy5-PAM2 peptide, secondary, miRNA deadenylation inhibitor project, dose response (AID 602260); assay type: functional; conditions: read-out: IC50_Mean
# T3 sequence (P11940 whole entry, the tested form may be a part): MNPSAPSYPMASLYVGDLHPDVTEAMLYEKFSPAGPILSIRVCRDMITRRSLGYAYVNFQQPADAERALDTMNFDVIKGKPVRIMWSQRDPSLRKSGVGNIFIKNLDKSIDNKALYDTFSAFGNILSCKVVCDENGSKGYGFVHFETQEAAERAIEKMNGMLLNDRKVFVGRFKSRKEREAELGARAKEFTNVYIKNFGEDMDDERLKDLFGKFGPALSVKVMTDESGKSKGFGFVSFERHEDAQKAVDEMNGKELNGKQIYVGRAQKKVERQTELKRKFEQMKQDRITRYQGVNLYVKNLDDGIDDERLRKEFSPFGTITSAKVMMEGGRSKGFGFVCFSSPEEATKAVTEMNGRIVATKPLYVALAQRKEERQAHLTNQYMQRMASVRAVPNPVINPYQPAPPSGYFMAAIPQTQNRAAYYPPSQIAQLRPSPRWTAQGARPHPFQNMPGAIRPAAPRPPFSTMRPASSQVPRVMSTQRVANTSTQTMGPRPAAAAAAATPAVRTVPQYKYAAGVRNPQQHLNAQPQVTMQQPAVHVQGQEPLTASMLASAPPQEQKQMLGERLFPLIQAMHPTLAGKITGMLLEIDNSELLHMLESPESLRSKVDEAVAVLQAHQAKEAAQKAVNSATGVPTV
# [30] = molecular target: T3, Polyadenylate-binding protein 1; assay: MLLE domain peptide-binding blockers, IC50 – biochemical, fluorescence polarization, FITC-PAM2 peptide, dose response (AID 602259); assay type: functional; conditions: read-out: IC50_Mean
# [31] = molecular target: Disintegrin and metalloproteinase domain-containing protein 17 (Homo sapiens, UniProt P78536); assay: exosite inhibitors of ADAM17, dose response, biochemical (AID 743260)
# Disintegrin and metalloproteinase domain-containing protein 17, sequence (P78536 whole entry, the tested form may be a part): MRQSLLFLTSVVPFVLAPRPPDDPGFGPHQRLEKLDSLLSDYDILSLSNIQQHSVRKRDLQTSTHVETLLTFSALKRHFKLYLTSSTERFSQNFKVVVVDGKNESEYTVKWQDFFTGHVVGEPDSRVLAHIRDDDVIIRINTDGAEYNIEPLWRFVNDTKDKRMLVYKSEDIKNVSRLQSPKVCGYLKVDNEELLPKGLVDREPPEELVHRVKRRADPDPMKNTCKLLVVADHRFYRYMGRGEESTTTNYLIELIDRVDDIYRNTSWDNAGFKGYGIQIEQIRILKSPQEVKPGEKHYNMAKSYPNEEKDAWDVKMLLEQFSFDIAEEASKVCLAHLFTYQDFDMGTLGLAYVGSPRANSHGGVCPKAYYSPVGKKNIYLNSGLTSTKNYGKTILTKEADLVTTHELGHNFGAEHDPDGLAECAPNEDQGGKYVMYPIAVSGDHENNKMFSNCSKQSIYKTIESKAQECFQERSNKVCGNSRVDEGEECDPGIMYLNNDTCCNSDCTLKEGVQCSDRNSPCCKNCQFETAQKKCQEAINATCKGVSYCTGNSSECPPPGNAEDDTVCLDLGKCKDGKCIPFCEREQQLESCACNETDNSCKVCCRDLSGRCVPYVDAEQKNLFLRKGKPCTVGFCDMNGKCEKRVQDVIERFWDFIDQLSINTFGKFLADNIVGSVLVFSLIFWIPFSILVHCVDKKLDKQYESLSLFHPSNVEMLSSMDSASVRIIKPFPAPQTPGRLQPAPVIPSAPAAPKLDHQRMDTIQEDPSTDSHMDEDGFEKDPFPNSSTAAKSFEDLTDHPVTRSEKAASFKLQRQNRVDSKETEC
structure (smiles),measurement,setting,value
Cc1cccc(NC(S)=NNC(=O)c2nn(C)cc2Cl)c1,IC50,[1],> 122 µM (inactive)
Clc1ccccc1Nc1nnc(-c2ccncc2)s1,EC50,BJ [2],7.07 µM (active)
same,EC50,[3],0.799 µM (active)
same,EC50,[4],2.56 µM (active)
same,EC50,BJ [5],> 150 µM (inconclusive)
same,EC50,[6],5.43 µM (active)
same,EC50,BJ [7],> 133 µM (inactive)
same,AC50,INS1,4.99 µM (active)
same,AC50,[8],4.79 µM (active)
same,AC50,[9],8.92 µM (active)
same,AC50,[10],5.65 µM (active)
same,AC50,[11],8 µM (active)
same,EC50,[12],> 67.5 µM (inactive)
same,AC50,[13],4.19 µM (active)
CCOC(=O)[C@@H]1[C@H]2COc3cc(OC)ccc3[C@H]2N2C(=O)N(c3ccc(C(F)(F)F)cc3)C(=O)[C@]12C,CC50,[14],13.2 µM (active)
same,AC50,[15],3.05 µM (active)
same,AC50,INS1,7.32 µM (active)
same,AC50,[16],27.3 µM (active)
same,AC50,[17],27.7 µM (active)
same,AC50,[18],38.8 µM (active)
same,AC50,[19],25 µM (active)
C[C@@H]1CCCCO[C@H](CN(C)S(=O)(=O)c2cccs2)[C@@H](C)CN([C@@H](C)CO)C(=O)c2cc(NC(=O)Nc3ccc(C(F)(F)F)cc3)ccc2O1,AC50,Paired box protein Pax-8,3.48 µM (active)
same,AC50,[20],51.6 µM (active)
CC(=O)c1sc(NC(=O)CCS(=O)(=O)c2ccccc2)nc1C,EC50,[21],> 150 µM (inactive)
same,EC50,[22],0.691 µM (active)
same,EC50,[23],> 180 µM (inactive)
same,EC50,[24],> 150 µM (inactive)
same,EC50,[25],> 91.1 µM (inactive)
same,EC50,[26],> 91.1 µM (inactive)
CCCC#Cc1ccc([C@H]2[C@@H](CO)N3CCCCN(C(=O)NC4CCCC4)C[C@H]23)cc1,AC50,[27],5.27 µM (active)
same,AC50,[28],12.6 µM (active)
CN(C)c1ccc2c(=O)c3ccccc3oc2n1,EC50,[12],> 67.6 µM (inactive)
O=C(CC1SC(=O)N(c2ccccc2)C1=O)Nc1ccccc1 (configuration not stated),IC50,[29],> 66 µM (inactive)
same,IC50,[30],> 66 µM (inactive)
same,IC50,[31],46.7 µM (inactive)
COc1ccc(S(=O)(=O)N2CC[C@@H]3[C@@H](CO)Nc4ccc(-c5ccc(C#N)cc5)cc4[C@@H]32)cc1,AC50,[27],6.28 µM (active)
same,AC50,[28],3.16 µM (active)
